Measured values from patent US8735398B2 (Bristol-Myers Squibb Company, priority 2009, dated 2014).

These molecules were tested on HCV 1b genotype (assay: HCV replicon assay (HCV-neo replicon cells, wild-type)). Settings: HCV 1b genotype replicon; class symbol; read-out: EC50 Range against HCV 1b.
Format: cell-based, Hepatitis C virus
Method: An HCV Replicon assay was utilized in the present disclosure, and was prepared, conducted and validated as described in commonly owned PCT/US2006/022197 and in O'Boyle et al., Antimicrob. Agents Chemother, 49(4):1346-1353 (April 2005). Assay methods incorporating luciferase reporters have also been used as described (Apath.com).
HCV-neo replicon cells and replicon cells containing resistance substitutions in the NS5A region were used to test the currently described family of compounds.
The compounds were determined to have differing degrees of reduced inhibitory activity on cells containing mutations vs. the corresponding inhibitory potency against wild-type cells. Thus, the compounds of the present disclosure can be effective in inhibiting the function of the HCV NS5A protein and are understood to be as effective in combinations as previously described in application PCT/US2006/022197 and commonly owned WO 04/014852. It should be understood that the compounds of the present disclosure can inhibit multiple genotypes of HCV. […] In one embodiment, compounds of the present disclosure are inhibitory versus 1a, 1b, 2a, 2b, 3a, 4a, and 5a genotypes.

CC(C)(C)OC(=O)N1CCCC1(C)C(=O)N1CCC[C@H]1C(=O)Nc1ccc(-c2cnc(-c3ccc(NC(=O)[C@@H]4CCCN4C(=O)C4(C)CCCN4C(=O)OC(C)(C)C)cc3)o2)cc1 (stereo partly drawn) [Example D-29, di-tert-butyl 2,2′-(1,3-oxazole-2,5-diylbis(4,1-phenylenecarbamoyl(2S)-2,1-pyrrolidinediylcarbonyl))bis(2-methyl-1-pyrrolidinecarboxylate)] showed an EC50 of 1000 to 10000 nM.

Same assay, conditions: Hepatitis C virus, HCV 1b genotype replicon; class symbol; read-out: EC50 Range against HCV 1b

First: CC(=O)N1CCC[C@H]1C(=O)Nc1ccc(-c2nc(C)sc2-c2ccc(NC(=O)[C@@H]3CCCN3C(C)=O)cc2)cc1 [Example D-43, (2S,2′S)-N,N′-((2-methyl-1,3-thiazole-4,5-diyl)di-4,1-phenylene)bis(1-acetyl-2-pyrrolidinecarboxamide)]
Second: O=C(Nc1ccc(-c2nnc(-c3ccc(NC(=O)[C@@H]4CCCN4C(=O)[C@H]4CCCO4)cc3)o2)cc1)[C@@H]1CCCN1C(=O)[C@H]1CCCO1 [RK-15, (2S,2′S)-N,N′-(1,3,4-oxadiazole-2,5-diyldi-4,1-phenylene)bis(1-((2R)-tetrahydro-2-furanylcarbonyl)-2-pyrrolidinecarboxamide)]
The EC50 of the first is lower: 100 to 999 nM for the first, 1000 to 10000 nM for the second.

C[C@H](NC(=O)c1cccc(Cl)n1)C(=O)Nc1ccc(-c2nnc(-c3ccc(NC(=O)[C@H](C)NC(=O)c4cccc(Cl)n4)cc3)o2)cc1 [RK-20, N,N′-(1,3,4-oxadiazole-2,5-diylbis(4,1-phenyleneimino((2S)-1-oxo-1,2-propanediyl)))bis(6-chloro-2-pyridinecarboxamide)] and C[C@H](NC(=O)OCc1ccccc1)C(=O)Nc1ccc(-c2nncn2-c2ccc(NC(=O)[C@H](C)NC(=O)OCc3ccccc3)cc2)cc1 [OL-16, [(1S)-1-methyl-2-oxo-2-[[4-[3-[4-[[(2S)-1-oxo-2-[[(phenylmethoxy)carbonyl]amino]propyl]amino]phenyl]-4H-1,2,4-triazol-4-yl]phenyl]amino]ethyl]-carbamic acid, phenylmethyl ester] fall in the same range of EC50: 1000 to 10000 nM for the first, 1000 to 10000 nM for the second.

CN(C)[C@@H](C(=O)N1CCC[C@H]1C(=O)Nc1ccc(-c2ccc(-c3ccc(NC(=O)[C@@H]4CCCN4C(=O)[C@@H](c4ccccc4)N(C)C)cc3)o2)cc1)c1ccccc1 [JG-63, (2S,2′S)-N,N′-(2,5-furandiyldi-4,1-phenylene)bis(1-((2R)-2-(dimethylamino)-2-phenylacetyl)-2-pyrrolidinecarboxamide)] and O=C(Nc1ccc(-c2nc[nH]c2-c2ccc(NC(=O)[C@@H]3CCCN3C(=O)[C@H](O)c3ccccc3)cc2)cc1)[C@@H]1CCCN1C(=O)[C@H](O)c1ccccc1 [JG-43, (2S,2′S)-N,N′-(1H-imidazole-4,5-diyldi-4,1-phenylene)bis(1-((2R)-2-hydroxy-2-phenylacetyl)-2-pyrrolidinecarboxamide)] cannot be ordered by EC50: < 4.57 nM for the first, < 4.57 nM for the second.

First: O=C(Nc1ccc(-c2nncn2-c2ccc(NC(=O)[C@@H]3CCCN3C(=O)OCc3ccccc3)cc2)cc1)[C@@H]1CCCN1C(=O)OCc1ccccc1 [OL-14, (2S,2′S)-2,2′-[4H-1,2,4-triazole-3,4-diylbis(4,1-phenyleneiminocarbonyl)]bis-1-pyrrolidinecarboxylic acid, bis(phenylmethyl) ester]
Second: O=C(Nc1ccc(-c2n[nH]nc2-c2ccc(NC(=O)[C@@H]3CCCN3C(=O)Cc3ccccc3)cc2)cc1)[C@@H]1CCCN1C(=O)Cc1ccccc1 [OL-20, (2S,2′S)-N,N′-(1H-1,2,3-triazole-4,5-diyldi-4,1-phenylene)bis[1-(phenylacetyl)-2-pyrrolidinecarboxamide]]
The EC50 of the first is higher: 1000 to 10000 nM for the first, 4.57 to 99 nM for the second. The second is the more potent here.

First: CN(C)C(C(=O)N1CCC[C@H]1C(=O)Nc1ccc(-c2cnc(-c3ccc(NC(=O)[C@@H]4CCCN4C(=O)C(c4ccc(F)cc4F)N(C)C)cc3)o2)cc1)c1ccc(F)cc1F (stereo partly drawn) [Example D-5, (2S,2′S)-N,N′-(2,5-oxazolediyldi-4,1-phenylene)bis[1-[(2,4-difluorophenyl)(dimethylamino)acetyl]-2-pyrrolidinecarboxamide]]
Second: COc1cccc2c(C(=O)N3CCC[C@H]3C(=O)Nc3ccc(-c4ccc(-c5ccc(NC(=O)[C@@H]6CCCN6C(=O)[C@H](NC(C)=O)c6ccccc6)cc5)o4)cc3)nc(Cl)cc12 [JG-67, (2S)-1-((2R)-2-acetamido-2-phenylacetyl)-N-(4-(5-(4-((((2S)-1-((3-chloro-5-methoxy-1-isoquinolinyl)carbonyl)-2-pyrrolidinyl)carbonyl)amino)phenyl)-2-furyl)phenyl)-2-pyrrolidinecarboxamide]
The EC50 of the first is lower: < 4.57 nM for the first, 4.57 to 99 nM for the second. The first is the more potent here.

First: C[C@](O)(C(=O)N1CCC[C@H]1C(=O)Nc1ccc(-c2nc[nH]c2-c2ccc(NC(=O)[C@@H]3CCCN3C(=O)[C@](C)(O)c3ccccc3)cc2)cc1)c1ccccc1 [JG-47, (2S,2′S)-N,N′-(1H-imidazole-4,5-diyldi-4,1-phenylene)bis(1-((2R)-2-hydroxy-2-phenylpropanoyl)-2-pyrrolidinecarboxamide)]
Second: C[C@@](O)(C(=O)N1CC[C@@H](NC(=O)Nc2ccc(-c3cnc(-c4ccc(NC(=O)N[C@@H]5CCN(C(=O)[C@@](C)(O)c6ccccc6)C5)cc4)o3)cc2)C1)c1ccccc1 [FY-7, N′,N′″-(1,3-oxazole-2,5-diyldi-4,1-phenylene)bis(1-((3R)-1-(2-hydroxy-2-phenylpropanoyl)-3-pyrrolidinyl)urea)]
The EC50 of the first is lower: 4.57 to 99 nM for the first, 100 to 999 nM for the second. The first is the more potent here.

Work on O=C(Nc1ccc(-c2cnc(-c3ccc(NC(=O)[C@@H]4CCCN4C(=O)C4CCCCN4Cc4ccccc4)cc3)o2)cc1)[C@@H]1CCCN1C(=O)C1CCCCN1Cc1ccccc1 (stereo partly drawn) [Example D-21, (2S,2′S)-N,N′-(1,3-oxazole-2,5-diyldi-4,1-phenylene)bis(1-((1-benzyl-2-piperidinyl)carbonyl)-2-pyrrolidinecarboxamide)] yielded an EC50 of 1000 to 10000 nM.

Same assay, conditions: Hepatitis C virus, HCV 1b genotype replicon; class symbols; read-out: EC50 Range against HCV 1b

CCCC(C)C(=O)N1CCC[C@H]1C(=O)Nc1ccc(-c2cnc(-c3ccc(NC(=O)[C@@H]4CCCN4C(=O)C(C)CCC)cc3)o2)cc1 (stereo partly drawn) [XY-9, (2S,2′S)-N,N′-(1,3-oxazole-2,5-diyldi-4,1-phenylene)bis(1-(2-methylpentanoyl)-2-pyrrolidinecarboxamide)] and O=C(Nc1ccc(-c2cnc(-c3ccc(NC(=O)[C@@H]4CCCN4C(=O)CC4CC4)cc3)o2)cc1)[C@@H]1CCCN1C(=O)CC1CC1 [XY-24, (2S,2′S)-N,N′-(1,3-oxazole-2,5-diyldi-4,1-phenylene)bis(1-(cyclopropylacetyl)-2-pyrrolidinecarboxamide)] fall in the same range of EC50: 100 to 999 nM for the first, 100 to 999 nM for the second.

O=C(Nc1ccc(-c2cnc(-c3ccc(NC(=O)[C@@H]4CCCN4C(=O)c4sccc4Cl)cc3)o2)cc1)[C@@H]1CCCN1C(=O)c1sccc1Cl [XY-25, (2S,2′S)-N,N′-(1,3-oxazole-2,5-diyldi-4,1-phenylene)bis(1-((3-chloro-2-thienyl)carbonyl)-2-pyrrolidinecarboxamide)] and Cc1ncccc1C(=O)N1CCC[C@H]1C(=O)Nc1ccc(-c2cnc(-c3ccc(NC(=O)[C@@H]4CCCN4C(=O)c4cccnc4C)cc3)o2)cc1 [XY-30, (2S,2′S)-N,N′-(1,3-oxazole-2,5-diyldi-4,1-phenylene)bis(1-((2-methyl-3-pyridinyl)carbonyl)-2-pyrrolidinecarboxamide)] fall in the same range of EC50: 1000 to 10000 nM for the first, 1000 to 10000 nM for the second.

Compared with CC(=O)N1CCC(C(=O)N2CCC[C@H]2C(=O)Nc2ccc(-c3cnc(-c4ccc(NC(=O)[C@@H]5CCCN5C(=O)C5CCN(C(C)=O)CC5)cc4)o3)cc2)CC1 [XY-23, (2S,2′S)-N,N′-(1,3-oxazole-2,5-diyldi-4,1-phenylene)bis(1-((1-acetyl-4-piperidinyl)carbonyl)-2-pyrrolidinecarboxamide)], CC(C)(C)O[C@@H]1C[C@@H](C(=O)Nc2ccc(-c3cnc(-c4ccc(NC(=O)[C@@H]5C[C@@H](OC(C)(C)C)CN5C(=O)C5CCC5)cc4)o3)cc2)N(C(=O)C2CCC2)C1 [XY-64, (2S,4R,2′S,4′R)-N,N′-(1,3-oxazole-2,5-diyldi-4,1-phenylene)bis(4-tert-butoxy-1-(cyclobutylcarbonyl)-2-pyrrolidinecarboxamide)] is higher in EC50: 100 to 999 nM for the first, 1000 to 10000 nM for the second.

Compared with COc1cccc(CC(=O)N2C[C@H](OC(C)(C)C)C[C@H]2C(=O)Nc2ccc(-c3cnc(-c4ccc(NC(=O)[C@@H]5C[C@@H](OC(C)(C)C)CN5C(=O)Cc5cccc(OC)c5)cc4)o3)cc2)c1 [XY-77, (2S,4R,2′S,4′R)-N,N′-(1,3-oxazole-2,5-diyldi-4,1-phenylene)bis(4-tert-butoxy-1-((3-methoxyphenyl)acetyl)-2-pyrrolidinecarboxamide)], COCCOCC(=O)N1CCC[C@H]1C(=O)Nc1ccc(-c2cnc(-c3ccc(NC(=O)[C@@H]4CCCN4C(=O)COCCOC)cc3)o2)cc1 [XY-8, (2S,2′S)-N,N′-(1,3-oxazole-2,5-diyldi-4,1-phenylene)bis(1-((2-methoxyethoxy)acetyl)-2-pyrrolidinecarboxamide)] is higher in EC50: 100 to 999 nM for the first, 1000 to 10000 nM for the second.

First: COc1cc(C(=O)N[C@@H](C)C(=O)Nc2ccc(-c3nnc(-c4ccc(NC(=O)[C@H](C)NC(=O)c5cc(Cl)nc(OC)c5)cc4)o3)cc2)cc(Cl)n1 [RK-41, N,N′-(1,3,4-oxadiazole-2,5-diylbis(4,1-phenyleneimino((2S)-1-oxo-1,2-propanediyl)))bis(2-chloro-6-methoxyisonicotinamide)]
Second: COc1cccc2c(C(=O)N[C@@H](C)C(=O)Nc3ccc(-c4nnc(-c5ccc(NC(=O)[C@H](C)NC(=O)c6nc(Cl)cc7c(OC)cccc67)cc5)o4)cc3)nc(Cl)cc12 [RK-33, N,N′-(1,3,4-oxadiazole-2,5-diylbis(4,1-phenyleneimino((2S)-1-oxo-1,2-propanediyl)))bis(3-chloro-5-methoxy-1-isoquinolinecarboxamide)]
The EC50 of the first is higher: 1000 to 10000 nM for the first, 100 to 999 nM for the second.

Same assay, conditions: Hepatitis C virus, HCV 1b genotype replicon; read-out: EC50 1b

COc1cccc2c(C(=O)N3CCC[C@H]3C(=O)Nc3ccc(-c4ccc(-c5ccc(NC(=O)[C@@H]6CCCN6C(=O)[C@H](NC(C)=O)c6ccccc6)cc5)o4)cc3)nc(Cl)cc12 [JG-67, (2S)-1-((2R)-2-acetamido-2-phenylacetyl)-N-(4-(5-(4-((((2S)-1-((3-chloro-5-methoxy-1-isoquinolinyl)carbonyl)-2-pyrrolidinyl)carbonyl)amino)phenyl)-2-furyl)phenyl)-2-pyrrolidinecarboxamide] showed an EC50 of 5.2 nM.
